Source: patent US20230285258A1, “A SUNSCREEN FORMULATION” (priority 2019, published 2023)

Experiments:
[1] = formulation containing 10%, 2 mg/cm^2 daily for a week, cited from earlier work
[2] = Urine samples collected in 2007-2009 from Californian females; format: in vivo, human; conditions: from 22.9 ng/mL to 200 ng/mL
Experimental: Since the first day of sunscreen usage in 1930s, the exposure to sunscreen agents has begun. Initially the scope and frequency of the sunscreen usage among the human population was very limited. Therefore, the levels of UV filters found in human samples were usually low. However, for the last 20 years, the situation changed dramatically. In one epidemiological study conducted in 2003-2004, 2517 urine samples from United States (US) general population were analyzed for the presence of oxybenzone (benzophenone-3, bp-3), as part of the 2003-2004 National Health and Nutrition Examination Survey [A.M. Calafat, L.Y.Wong, X.YE, J.A.Reidy, L.L.Needham, Concentrations of the sunscreen agent benzophenone-3 in residents of the United States: National Health and nutrition Examination Survey 2003-2004, Environ. Health Perspect, 116(2008)893-897]. Oxybenzone was detected in 97% of the all samples with mean concentration of 22.9 ng/ml and 95th percentile concentration of 1040 ng/ml. As the data indicated the sunscreen agent occurrences is widespread. […] 543(2016)28-36]. […]

[3] = US general population 2003-2004; cited from earlier work
[4] = Californian females 2007-2009; cited from earlier work
[5] = Mice skin penetration test (ointment on shaved back, plasma HPLC)
Experimental: Mice preparation and blood sample taking: A group of mice ranging from 16 to 60 were fed with adequate food and water for 3 days. Twelve hours before the test the food was removed, and only water was given. Usually 12 mice were randomly selected with 2 mice assigned for each time points of 5, 15, 30, 60, 90, 120 minutes. Sometimes 3 mice may be selected for certain sample time points. Two hours before the test the mice were subjected to anesthesia and the hair on the back (2.5--3.0 cm^2) was removed. After recovering from anesthesia mice will be applied with testing ointment sample. The exact same testing procedures will be carried out with the control standard sample. At 5, 15, 30, 60, 90, 120 min. Blood sample (1 mL) will be collected after removing the eyes.
Blood sample pretreatment: after the blood sample was taken, it was immediately subjected to centrifugation 10 min. at 12000 rpm, supernatant plasma layer was taken, preserved at -20° C. for later use.
Blood sample preparation: Accurately transfer 150 µL plasma sample to a 1.5 mL EP test tube. Add methanol and acetonitrile 200 µL, respectively. Vertex mix for 1 min., then centrifuge for 10 min. at 12000 rpm. Precisely transfer the supernatant solution to another test tube. At 40° C. blow N2 through to dryness. To the solids left add methanol 150 µL, vertex mix for 1 min. centrifuge at 12000 rpm for 10 min. Supernatant solution was used directly for HPLC analysis.
(4-Aminomethoxy-2-hydroxy-phenyl)-phenyl-methanone-PAA-OMe-OPr(40): Column: C18 RP column (250 × 4.6 mm, 5 µm); column temperature: 25° C.; mobile phase: MeOH:0.05% Formic Acid = 70:30; Flow rate: 1.0 mL/min.; Wavelength: 310 nm; Injection volume: 20 L;
1-[4-(3-Amino-propoxy)-2-hydroxy-phenyl1-3-(4-tert-butyl-phenyl)-propane)-1,3-dione-PAA-OMe-OPr(40): Column: C18 RP column (250 × 4.6 mm, 5 m); column temperature: 25° C.; mobile phase: MeOH:0.05% Formic Acid = 80:20; Flow rate: 1.0 mL/min.; Wavelength: 360 nm; Injection volume: 20 µL; […]

increase of average concentration in urine sample compared to the 2003-2004 study [2] | Molecule | mean urine concentration, females ([1]; adults) [ng/mL] | maximum plasma concentration, females [1] [ng/mL] | maximum plasma concentration, males [1] [ng/mL] | mean urine concentration, males ([1]; adults) [ng/mL] | 95th percentile concentration in urine [3] [ng/mL] | mean concentration in urine [3] [ng/mL] | average level in urine samples [4] | highest level in urine samples [4] | hydrolysis in the plasma ([5]; inferred from mice blood samples after topical application) | sunscreen agent detected in plasma/blood samples by HPLC ([5]; mice, samples at 5, 15, 30, 60, 90, 120 min after topical application) | skin penetration of the sunscreen agent ([5]; topical test formulation on mice back, plasma at 5-120 min, compared with control formulation)
– | Cc1ccc(C=C2C(=O)C3(C)CCC2C3(C)C)cc1 (stereo not drawn) [4-methylbenzylidene camphor] | 5 | 20 | 20 | – | – | – | – | – | – | – | –
– | CCCCC(CC)COC(=O)C=Cc1ccc(OC)cc1 (stereo not drawn) [octyl methoxycinnamate] | 5 | 10 | 2 | 8 | – | – | – | – | – | – | –
more than 9 folds | COc1ccc(C(=O)c2ccccc2)c(O)c1 [oxybenzone] | 60 | 200 | 300 | – | 1040 | 22.9 | around 200 ng/ml | up to 13000 ng/ml | – | – | –
– | Octandioic Oxybenzone Ester | – | – | – | – | – | – | – | – | rapid hydrolysis | no octandioic oxybenzone esters was detected | skin penetration of octandioic oxybenzone ester
